From patent US7241776B2, “Cyanoamidine P2X7 antagonists for the treatment of pain” (Abbott Laboratories, priority 2004, dated 2007)

| SMILES | melting point [°C] |
| --- | --- |
| Cc1ccccc1CC(=NC#N)NC(NC(=O)CF)C(C)(C)C (stereo not drawn) | 151 to 152 |
| Cc1ccccc1CC(=NC#N)NC(NC(=O)Cc1ccccc1)C(C)(C)C (stereo not drawn) [Example 1, N-(1-{[N-cyano-2-(2-methylphenyl)ethanimidoyl]amino}-2,2-dimethylpropyl)-2-phenylacetamide] | 182 to 183 |
| Cc1ccccc1CC(=NC#N)NC(NC(=O)Cc1ccc(Cl)cc1)C(C)(C)C (stereo not drawn) [Example 2, 2-(4-chlorophenyl)-N-(1-{[N-cyano-2-(2-methylphenyl)ethanimidoyl]amino}-2,2-dimethylpropyl)acetamide] | 183 to 185 |
| COc1ccc(CC(=O)NC(NC(Cc2ccccc2C)=NC#N)C(C)(C)C)cc1OC (stereo not drawn) [Example 3, N-(1-{[N-cyano-2-(2-methylphenyl)ethanimidoyl]amino}-2,2-dimethylpropyl)-2-(3,4-dimethoxyphenyl)acetamide] | 153 to 155 |
| COc1ccc(CC(=O)NC(NC(Cc2ccccc2C)=NC#N)C(C)(C)C)cc1 (stereo not drawn) [Example 4, N-(1-{[N-cyano-2-(2-methylphenyl)ethanimidoyl]amino}-2,2-dimethylpropyl)-2-(4-methoxyphenyl)acetamide] | 199 to 201 |
| Cc1ccccc1CC(=NC#N)NC(NC(=O)Cc1ccc2c(c1)OCO2)C(C)(C)C (stereo not drawn) [Example 5, 2-(1,3-benzodioxol-5-yl)-N-(1-{[N-cyano-2-(2-methylphenyl)ethanimidoyl]amino}-2,2-dimethylpropyl)acetamide] | 167 to 169 |
| Cc1ccccc1CC(=NC#N)NC(NC(=O)Cc1ccc(C#N)cc1)C(C)(C)C (stereo not drawn) [Example 6, N-(1-{[N-cyano-2-(2-methylphenyl)ethanimidoyl]amino}-2,2-dimethylpropyl)-2-(4-cyanophenyl)acetamide] | 199 to 201 |
| Cc1ccccc1CC(=NC#N)NC(NC(=O)Cc1ccc2c(c1)OCCO2)C(C)(C)C (stereo not drawn) [Example 7, N-(1-{[N-cyano-2-(2-methylphenyl)ethanimidoyl]amino}-2,2-dimethylpropyl)-2-(2,3-dihydro-1,4-benzodioxin-6-yl)acetamide] | 180 to 181 |
| Cc1ccccc1CC(=NC#N)NC(NC(=O)Cc1cccc2ccccc12)C(C)(C)C (stereo not drawn) [Example 9, N-(1-{[N-cyano-2-(2-methylphenyl)ethanimidoyl]amino}-2,2-dimethylpropyl)-2-(1-naphthyl)acetamide] | 97 to 100 |
| Cc1ccccc1CC(=NC#N)NC(NC(=O)Cc1ccc2ncccc2c1)C(C)(C)C (stereo not drawn) [Example 10, N-(1-{[N-cyano-2-(2-methylphenyl)ethanimidoyl]amino}-2,2-dimethylpropyl)-2-quinolin-6-ylacetamide] | 172 to 173 |
| Cc1ccccc1CC(=NC#N)NC(NC(=O)Cc1ccc2cccnc2c1)C(C)(C)C (stereo not drawn) [Example 11, N-(1-{[N-cyano-2-(2-methylphenyl)ethanimidoyl]amino}-2,2-dimethylpropyl)-2-quinolin-7-ylacetamide] | 165 to 166 |
| Cc1ccccc1CC(=NC#N)NC(NC(=O)CCCc1cccs1)C(C)(C)C (stereo not drawn) [Example 12, N-(1-{[N-cyano-2-(2-methylphenyl)ethanimidoyl]amino}-2,2-dimethylpropyl)-4-thien-2-ylbutanamide] | 154 to 155 |
| Cc1ccccc1CC(=NC#N)NC(NC(=O)Cc1ccc(F)c(F)c1)C(C)(C)C (stereo not drawn) [Example 13, N-(1-{[N-cyano-2-(2-methylphenyl)ethanimidoyl]amino}-2,2-dimethylpropyl)-2-(3,4-difluorophenyl)acetamide] | 178 to 179 |
| CCSc1ccc(CC(=O)NC(NC(Cc2ccccc2C)=NC#N)C(C)(C)C)cc1 (stereo not drawn) [Example 14, N-(1-{[N-cyano-2-(2-methylphenyl)ethanimidoyl]amino}-2,2-dimethylpropyl)-2-[4-(ethylthio)phenyl]acetamide] | 196 to 198 |
| CSc1ccc(CC(=O)NC(NC(Cc2ccccc2C)=NC#N)C(C)(C)C)cc1 (stereo not drawn) [Example 15, N-(1-{[N-cyano-2-(2-methylphenyl)ethanimidoyl]amino}-2,2-dimethylpropyl)-2-[4-(methylthio)phenyl]acetamide] | 201 to 202 |
| COc1ccc(CCCC(=O)NC(NC(Cc2ccccc2C)=NC#N)C(C)(C)C)cc1 (stereo not drawn) [Example 16, N-(1-{[N-cyano-2-(2-methylphenyl)ethanimidoyl]amino}-2,2-dimethylpropyl)-4-(4-methoxyphenyl)butanamide] | 171 to 172 |
| Cc1ccccc1CC(=NC#N)NC(NC(=O)CCCCc1ccccc1)C(C)(C)C (stereo not drawn) [Example 17, N-(1-{[N-cyano-2-(2-methylphenyl)ethanimidoyl]amino}-2,2-dimethylpropyl)-5-phenylpentanamide] | 151 to 152 |
| Cc1ccccc1CC(=NC#N)NC(NC(=O)Cc1cccnc1)C(C)(C)C (stereo not drawn) [Example 18, N-(1-{[N-cyano-2-(2-methylphenyl)ethanimidoyl]amino}-2,2-dimethylpropyl)-2-pyridin-3-ylacetamide] | 84 to 86 |
| Cc1ccccc1C(=NC#N)NC(NC(=O)Cc1ccc(Cl)cc1)C(C)(C)C (stereo not drawn) [Example 19, 2-(4-chlorophenyl)-N-(1-{[(cyanoimino)(2-methylphenyl)methyl]amino}-2,2-dimethylpropyl)acetamide] | 109 to 110 |
| Cc1ncccc1CC(=NC#N)NC(NC(=O)Cc1ccc(Cl)cc1)C(C)(C)C (stereo not drawn) [Example 20, 2-(4-chlorophenyl)-N-(1-{[N-cyano-2-(2-methylpyridin-3-yl)ethanimidoyl]amino}-2,2-dimethylpropyl)acetamide] | 118 to 119 |
| COc1ccc(CC(=O)NC(NC(Cc2cccnc2C)=NC#N)C(C)(C)C)cc1OC (stereo not drawn) [Example 21, N-(1-{[N-cyano-2-(2-methylpyridin-3-yl)ethanimidoyl]amino}-2,2-dimethylpropyl)-2-(3,4-dimethoxyphenyl)acetamide] | 164 to 165 |
| CC(C)(C)C(NC(=O)Cc1ccc(Cl)cc1)NC(Cc1cccc2ncccc12)=NC#N (stereo not drawn) [Example 23, 2-(4-chlorophenyl)-N-(1-{[N-cyano-2-quinolin-5-ylethanimidoyl]amino}-2,2-dimethylpropyl)acetamide] | 186 to 188 |
| COc1ccc(CC(=O)NC(NC(=NC#N)c2cccc3ncccc23)C(C)(C)C)cc1OC (stereo not drawn) [Example 24, N-(1-{[(cyanoimino)(quinolin-5-yl)methyl]amino}-2,2-dimethylpropyl)-2-(3,4-dimethoxyphenyl)acetamide] | 203 to 205 |
| COc1ccc(CCC(C)NC(Cc2ccccc2C)=NC#N)cc1 (stereo not drawn) [Example 35, N′-cyano-N-[3-(4-methoxyphenyl)-1-methylpropyl]-2-(2-methylphenyl)ethanimidamide] | 103 to 104 |
| N#CN=C(Cc1ccccc1F)N[C@@H]1CCc2ccccc21 [Example 50, N′-cyano-N-[(1R)-2,3-dihydro-1H-inden-1-yl]-2-(2-fluorophenyl)ethanimidamide] | 141 to 142 |
| CC[C@@H](NC(Cc1cccnc1C)=NC#N)c1ccccc1 [Example 57, N′-cyano-2-(2-methylpyridin-3-yl)-N-[(1R)-1-phenylpropyl]ethanimidamide] | 52 to 54 |
| Cc1ncccc1CC(=NC#N)N[C@@H]1CCCc2ccccc21 [Example 58, N′-cyano-2-(2-methylpyridin-3-yl)-N-[(1R)-1,2,3,4-tetrahydronaphthalen-1-yl]ethanimidamide] | 193 to 194 |
